US12286425B2, “Herbicidally active bicyclic benzamides” (Bayer Aktiengesellschaft, priority 2018, dated 2025)

Key:
Format in all cases: in vivo
[1] = tested on: SETVI; test: Pre-emergence herbicidal action (PE), greenhouse pot test, SETVI; conditions: for Herbicidal activity SETVI: pre-emergence (PE)
From the text: (§1) 1. Pre-emergence herbicidal action and crop plant compatibility (pre-emergence, PE) Seeds of monocotyledonous and dicotyledonous weed plants and crop plants are placed in plastic or organic planting pots and covered with soil. The compounds of the invention, formulated in the form of wettable powders (WP) or as emulsion concentrates (EC), are then applied onto the surface of the covering soil as aqueous suspension or emulsion with addition of 0.5% additive at a water application rate of […] (converted). After the treatment, the pots are placed in a greenhouse and kept under good growth conditions for the trial plants. After about 3 weeks, the effect of the preparations is scored visually in comparison with untreated controls as percentages. The tables below show the herbicidal activity of numerous compounds according to the invention against important harmful plants. For example, 100% activity=the plants have died, 0% activity=like control plants.

[2] = tested on: monocotyledonous and dicotyledonous weed plants and crop plants; test: Pre-emergence herbicidal action and crop plant compatibility (PE), other species and comparison with A-117; conditions: for Herbicidal activity ABUTH: Abutilon theophrasti; for Herbicidal activity AMARE: Amaranthus retroflexus; for Herbicidal activity MATIN: Matricaria inodora; for Herbicidal activity STEME: Stellaria media; for Herbicidal activity VIOTR: Viola tricolor; for Herbicidal activity CYPES: Cyperus esculentus; for Herbicidal activity ECHCG: Echinochloa crus-galli; for Herbicidal activity POLCO: Polygonum convolvulus
From the text: as §1
(§2) In a comparative experiment, by way of example, the herbicidal activity of compound No. 2-13 according to the invention was compared to that of compound No. A-117 known from WO 2013/076315 A2.

[3] = tested on: monocotyledonous and dicotyledonous weeds and crop plants; test: Post-emergence herbicidal action and crop plant compatibility (PO), including comparison with A-117; conditions: for Herbicidal activity ABUTH / Herbicidal activity AMARE / Herbicidal activity ECHCG / Herbicidal activity STEME / Herbicidal activity VIOTR / Herbicidal activity VERPE / Herbicidal activity ALOMY / herbicidal activity AVEFA / Herbicidal activity PHBPU / Herbicidal activity LOLMU / Herbicidal activity MATIN / Herbicidal activity POLCO / Herbicidal activity SETVI / Herbicidal activity CYPES: post-emergence (PO); for Herbicidal activity ABUTH: Abutilon theophrasti; for Herbicidal activity AMARE: Amaranthus retroflexus; for Herbicidal activity ECHCG: Echinochloa crus-galli; for Herbicidal activity STEME: Stellaria media; for Herbicidal activity VIOTR: Viola tricolor; for Herbicidal activity VERPE: Veronica persica; for Herbicidal activity ALOMY: Alopecurus myosuroides; for herbicidal activity AVEFA: Avena fatua; for Herbicidal activity PHBPU: Ipomoea purpurea; for Herbicidal activity LOLMU: Lolium multiflorum; for Herbicidal activity MATIN: Matricaria inodora; for Herbicidal activity POLCO: Polygonum convolvulus; for Herbicidal activity SETVI: Setaria viridis; for Herbicidal activity CYPES: Cyperus esculentus
Experimental: 2. Post-emergence herbicidal action and crop plant compatibility (post-emergence, PO) Seeds of monocotyledonous and dicotyledonous weeds and crop plants are placed in sandy loam in plastic or organic planting pots, covered with soil and cultivated in a greenhouse under controlled growth conditions. 2 to 3 weeks after sowing, the test plants are treated at the one-leaf stage. The compounds of the invention, formulated in the form of wettable powders (WP) or as emulsion concentrates (EC), are then sprayed onto the green parts of the plants as aqueous suspension or emulsion with addition of 0.5% additive at a water application rate of […] (converted). After the test plants had been kept in the greenhouse under optimum growth conditions for about 3 weeks, the activity of the preparations is rated visually in comparison to untreated controls. The tables below show the herbicidal activity of numerous compounds according to the invention against important harmful plants. For example, 100% activity=the plants have died, 0% activity=like control plants.
as §2

[4] = tested on: AVEFA; test: Pre-emergence herbicidal action (PE), greenhouse pot test, AVEFA; conditions: for herbicidal activity AVEFA: pre-emergence (PE), application rate 320, scored visually after about 3 weeks vs untreated controls, 100% = plants have died, 0% = like control plants
From the text: as §1

[5] = pre-emergence (PE), application rate 80, scored visually after about 3 weeks
[6] = application rate 20, rated visually after about 3 weeks
[7] = application rate 80, rated visually after about 3 weeks
[8] = Setaria viridis, application rate 320, scored visually after about 3 weeks
[9] = pre-emergence (PE), application rate 320, scored visually after about 3 weeks

## Cn1nnnc1NC(=O)c1ccc(C(F)(F)F)c2c1SCCS2 [Example 2-5, 5-(trifluoromethyl)-2,3-dihydro-1,4-benzodithiine-N-(1-methyltetrazol-5-yl)-8-carboxamide]
[1]; application rate 80, scored visually after about 3 weeks vs untreated controls, 100% = plants have died, 0% = like control plants
  Herbicidal activity SETVI: 90%
[2]; [5]
  Herbicidal activity ABUTH: 100%
  Herbicidal activity AMARE: 100%
  Herbicidal activity MATIN: 100%
  Herbicidal activity STEME: 90%
  Herbicidal activity VIOTR: 100%
[2]; pre-emergence (PE), Veronica persica, application rate 80, scored visually after about 3 weeks
  Herbicidal activity VERPE: 90%
[3]; [6]
  Herbicidal activity ABUTH: 90%
  Herbicidal activity AMARE: 100%
  Herbicidal activity ECHCG: 90%
  Herbicidal activity STEME: 80%
  Herbicidal activity VIOTR: 80%

## Cn1nnnc1NC(=O)c1ccc(C(F)(F)F)c2c1S(=O)(=O)CCS2(=O)=O [Example 2-11]
[2]; [5]
  Herbicidal activity ABUTH: 100%
  Herbicidal activity AMARE: 80%
  Herbicidal activity MATIN: 80%
[3]; [7]
  Herbicidal activity ECHCG: 80%
  Herbicidal activity VERPE: 80%
  Herbicidal activity VIOTR: 90%

## Cn1nnnc1NC(=O)c1ccc(C(F)(F)F)c2c1OCCS2 [Example 2-13, 5-(trifluoromethyl)-2,3-dihydro-1,4-benzoxathiine-N-(1-methyltetrazol-5-yl)-8-carboxamide]
[4]; pre-emergence (PE) comparative experiment with A-117, Avena fatua, dosage 320 g/ha
  Herbicidal action against AVEFA: 80%
[4]
  herbicidal activity AVEFA: 80%
[1]; pre-emergence (PE) comparative experiment with A-117, Setaria viridis, dosage 320 g/ha
  Herbicidal action against SETVI: 100%
[1]; [8]
  Herbicidal activity SETVI: 100%
[2]; pre-emergence (PE) comparative experiment with A-117, Abutilon theophrasti, dosage 320 g/ha
  Herbicidal action against ABUTH: 100%
[2]; pre-emergence (PE) comparative experiment with A-117, Alopecurus myosuroides, dosage 320 g/ha
  Herbicidal action against ALOMY: 90%
[2]; pre-emergence (PE) comparative experiment with A-117, Matricaria inodora, dosage 320 g/ha
  Herbicidal action against MATIN: 100%
[2]; [9]
  Herbicidal activity ABUTH: 100%
  Herbicidal activity AMARE: 100%
  Herbicidal activity CYPES: 90%
  Herbicidal activity ECHCG: 100%
  Herbicidal activity MATIN: 100%
  Herbicidal activity POLCO: 80%
  Herbicidal activity STEME: 90%
  Herbicidal activity VIOTR: 100%
[2]; pre-emergence comparative experiment, numerous harmful plants
  herbicidal activity compared to compound No. A-117: superiority of the compound according to the invention was demonstrated clearly
[3]; post-emergence (PO) comparative experiment with A-117, Abutilon theophrasti, dosage 80 g/ha
  Herbicidal action against ABUTH: 100%
[3]; post-emergence (PO) comparative experiment with A-117, Alopecurus myosuroides, dosage 80 g/ha
  Herbicidal action against ALOMY: 90%
[3]; post-emergence (PO) comparative experiment with A-117, Avena fatua, dosage 80 g/ha
  Herbicidal action against AVEFA: 90%
[3]; post-emergence (PO) comparative experiment with A-117, Lolium multiflorum, dosage 80 g/ha
  Herbicidal action against LOLMU: 80%
[3]; post-emergence (PO) comparative experiment with A-117, Polygonum convolvulus, dosage 80 g/ha
  Herbicidal action against POLCO: 80%
[3]; [7]
  Herbicidal activity ABUTH: 100%
  Herbicidal activity ALOMY: 90%
  Herbicidal activity AMARE: 90%
  herbicidal activity AVEFA: 90%
  Herbicidal activity ECHCG: 90%
  Herbicidal activity PHBPU: 90%
  Herbicidal activity LOLMU: 80%
  Herbicidal activity MATIN: 90%
  Herbicidal activity POLCO: 80%
  Herbicidal activity SETVI: 90%
  Herbicidal activity STEME: 90%
  Herbicidal activity VERPE: 100%
  Herbicidal activity VIOTR: 100%
[3]; post-emergence comparative experiment, numerous harmful plants
  herbicidal activity compared to compound No. A-117: superiority of the compound according to the invention was demonstrated clearly

## Cn1nnnc1NC(=O)c1ccc(C(F)(F)F)c2c1OCC[S+]2[O-] (stereo not drawn) [Example 2-17, 5-(trifluoromethyl)-2,3-dihydro-1,4-benzoxathiine-N-(1-methyltetrazol-5-yl)-8-carboxamide 4-oxide]
[4]
  herbicidal activity AVEFA: 80%
[1]; [8]
  Herbicidal activity SETVI: 100%
[2]; [9]
  Herbicidal activity ABUTH: 100%
  Herbicidal activity AMARE: 100%
  Herbicidal activity CYPES: 100%
  Herbicidal activity ECHCG: 100%
  Herbicidal activity MATIN: 90%
  Herbicidal activity STEME: 100%
  Herbicidal activity VIOTR: 100%
[3]; [7]
  Herbicidal activity ABUTH: 100%
  Herbicidal activity ALOMY: 90%
  Herbicidal activity AMARE: 90%
  herbicidal activity AVEFA: 100%
  Herbicidal activity CYPES: 100%
  Herbicidal activity ECHCG: 90%
  Herbicidal activity PHBPU: 100%
  Herbicidal activity LOLMU: 90%
  Herbicidal activity MATIN: 90%
  Herbicidal activity POLCO: 90%
  Herbicidal activity SETVI: 90%
  Herbicidal activity STEME: 100%
  Herbicidal activity VERPE: 100%
  Herbicidal activity VIOTR: 100%

## Cn1nnnc1NC(=O)c1ccc(C(F)(F)F)c2c1OCCS2(=O)=O [Example 2-20, 5-(trifluoromethyl)-2,3-dihydro-1,4-benzoxathiine-N-(1-methyltetrazol-5-yl)-8-carboxamide 4,4-dioxide]
[4]
  herbicidal activity AVEFA: 100%
[1]; [8]
  Herbicidal activity SETVI: 100%
[2]; [9]
  Herbicidal activity ABUTH: 100%
  Herbicidal activity AMARE: 100%
  Herbicidal activity CYPES: 100%
  Herbicidal activity ECHCG: 100%
  Herbicidal activity MATIN: 100%
  Herbicidal activity POLCO: 100%
  Herbicidal activity STEME: 90%
  Herbicidal activity VIOTR: 100%
[3]; [7]
  Herbicidal activity ABUTH: 100%
  Herbicidal activity ALOMY: 80%
  Herbicidal activity AMARE: 100%
  herbicidal activity AVEFA: 80%
  Herbicidal activity CYPES: 80%
  Herbicidal activity ECHCG: 90%
  Herbicidal activity PHBPU: 90%
  Herbicidal activity LOLMU: 80%
  Herbicidal activity MATIN: 100%
  Herbicidal activity POLCO: 100%
  Herbicidal activity SETVI: 90%
  Herbicidal activity STEME: 90%
  Herbicidal activity VERPE: 100%
  Herbicidal activity VIOTR: 100%

## Cn1nnnc1NC(=O)c1ccc(C(F)(F)F)c2c1OCC(Cl)S2 (stereo not drawn) [Example 2-41]
[3]; [7]
  Herbicidal activity AMARE: 90%

## CCn1nnnc1NC(=O)c1ccc(C(F)(F)F)c2c1OCCS2 [Example 3-13, 5-(trifluoromethyl)-2,3-dihydro-1,4-benzoxathiine-N-(1-ethyltetrazol-5-yl)-8-carboxamide]
[4]
  herbicidal activity AVEFA: 80%
[1]; [8]
  Herbicidal activity SETVI: 100%
[2]; [9]
  Herbicidal activity ABUTH: 100%
  Herbicidal activity AMARE: 100%
  Herbicidal activity CYPES: 100%
  Herbicidal activity ECHCG: 100%
  Herbicidal activity MATIN: 90%
  Herbicidal activity POLCO: 90%
  Herbicidal activity STEME: 100%
  Herbicidal activity VIOTR: 100%
[3]; [7]
  Herbicidal activity ABUTH: 100%
  Herbicidal activity AMARE: 90%
  herbicidal activity AVEFA: 90%
  Herbicidal activity ECHCG: 100%
  Herbicidal activity PHBPU: 90%
  Herbicidal activity POLCO: 100%
  Herbicidal activity SETVI: 90%
  Herbicidal activity STEME: 100%
  Herbicidal activity VIOTR: 100%
